Tests used:
Proteus hauseri = experiment: Antimicrobial activity against Proteus hauseri incubated for 24 hrs; assay type: functional
Escherichia coli = experiment: Antimicrobial activity against Escherichia coli incubated for 24 hrs; assay type: functional
Salmonella enterica = experiment: Antimicrobial activity against Salmonella enterica incubated for 24 hrs; assay type: functional
Staphylococcus aureus = experiment: Antimicrobial activity against Staphylococcus aureus incubated for 24 hrs; assay type: functional
MDA-MB-231 = experiment: Cytotoxicity in human MDA-MB-231 cells assessed as reduction in cell viability incubated for 72 hrs by SRB assay; assay type: functional, cell-based; settings: MDA-MB-231, 72 h
K562 = experiment: Cytotoxicity in human K562 cells assessed as reduction in cell viability incubated for 72 hrs by SRB assay; assay type: functional, cell-based; settings: K562, 72 h
Bacillus subtilis = experiment: Antimicrobial activity against Bacillus subtilis incubated for 24 hrs; assay type: functional
SK-HEP1 = experiment: Cytotoxicity in human SKHEP1 cells assessed as reduction in cell viability incubated for 72 hrs by SRB assay; assay type: functional, cell-based; settings: SK-HEP1, 72 h
SNU-638 = experiment: Cytotoxicity in human SNU638 cells assessed as reduction in cell viability incubated for 72 hrs by SRB assay; assay type: functional, cell-based; settings: SNU-638, 72 h
HCT-116 = experiment: Cytotoxicity in human HCT116 cells assessed as reduction in cell viability incubated for 72 hrs by SRB assay; assay type: functional, cell-based; settings: HCT-116, 72 h
Aspergillus fumigatus = experiment: Antimicrobial activity against Aspergillus fumigatus incubated for 24 hrs; assay type: functional
Kocuria rhizophila = experiment: Antimicrobial activity against Kocuria rhizophila incubated for 24 hrs; assay type: functional
Candida albicans = experiment: Antimicrobial activity against Candida albicans incubated for 24 hrs; assay type: functional
A549 = experiment: Cytotoxicity in human A549 cells assessed as reduction in cell viability incubated for 72 hrs by SRB assay; assay type: functional, cell-based; settings: A549, 72 h
[1] = Toxicity in mouse Hepa1c1c7 cells at 2.5 to 20 uM; assay type: cell-based

Structure (SMILES)	MIC (Proteus hauseri) [µM]	MIC (Escherichia coli) [µM]	MIC (Salmonella enterica) [µM]	MIC (Staphylococcus aureus) [µM]	IC50 (MDA-MB-231) [µM]	IC50 (K562) [µM]	MIC (Bacillus subtilis) [µM]	IC50 (SK-HEP1) [µM]	IC50 (SNU-638) [µM]	IC50 (HCT-116) [µM]	MIC (Aspergillus fumigatus) [µM]	MIC (Kocuria rhizophila) [µM]	MIC (Candida albicans) [µM]	IC50 (A549) [µM]	Activity [1]
CCCCCCCCCCCCCCCCCNC(=O)[C@H](O)CO[C@H]1O[C@H](CO)[C@@H](O)[C@H](O)[C@H]1NC(C)=O	> 128	> 128	> 128	> 128	> 10	> 10	> 128	> 10	> 10	> 10	> 128	> 128	> 128	> 10	–
CCCCCCC/C=C\CCCCCCCCNC(=O)[C@H](O)CO[C@H]1O[C@H](CO)[C@@H](O)[C@H](O)[C@H]1NC(C)=O	> 128	> 128	> 128	> 128	> 10	> 10	> 128	> 10	> 10	> 10	> 128	> 128	> 128	> 10	–
CCCCCCCCCCCCCCCCNC(=O)[C@H](O)CO[C@H]1O[C@H](CO)[C@@H](O)[C@H](O)[C@H]1NC(C)=O	> 128	> 128	> 128	> 128	> 10	> 10	> 128	> 10	> 10	> 10	> 128	> 128	> 128	> 10	Non-Toxic
CCCCCC/C=C\CCCCCCCCNC(=O)[C@H](O)CO[C@H]1O[C@H](CO)[C@@H](O)[C@H](O)[C@H]1NC(C)=O	> 128	> 128	> 128	> 128	> 10	> 10	> 128	> 10	> 10	> 10	> 128	> 128	> 128	> 10	Non-Toxic

— ChEMBL document CHEMBL4130536, “Deinococcucins A-D, Aminoglycolipids from Deinococcus sp., a Gut Bacterium of the Carpenter Ant Camponotus japonicus” (J Nat Prod, 2017)
